Here are results for 112 molecules from PubChem BioAssay AID540258 (Broad Institute, 2011).

Calls of active or inactive are those of the source.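 How the source made its calls: active means fitted curve reaching 40% activation at or below the top valid dose tested; inconclusive means flat curve at 30 to 70% activation, or poor fit; inactive means the rest.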

In this test the test system is SK-MEL-5 TRPM1 promoter luciferase reporter, 24 h. Put plainly: MITF activators via TRPM1 promoter reporter, dose response, SK-MEL-5 cells, luciferase, cherry-pick samples (AID 540258).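 Further: potency for activators that raise TRPM1 promoter luciferase signal.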
Take `CCCc1nc2ccc(NC(C)=O)cc2c(=O)n1Cc1ccc(Cl)cc1`: the AC40 is 2.92 µM.

As to `COC(=O)Cc1ccc(OCc2ccc(Cl)nc2)cc1`, the AC40 is 4.13 µM.

Consider `CC(=O)N/C(N)=N/c1nc(=O)c2ccccc2s1`, for which the AC40 was 5.92 µM.

`COc1ccccc1NC(=O)Nc1nc2ccc(S(N)(=O)=O)cc2s1`: the AC40 was 1.57 µM.

In the case of `O=C(c1cc(COc2ccc(F)cc2Cl)on1)N1CCCCCC1`, the AC40 is 1.67 µM.

For the molecule `CN(C)c1ccc(CSc2ccccc2)cc1`, the AC40 is 1.83 µM.

Consider `Cc1nc(COC(=O)c2c(C)nn(-c3ccccc3)c2C)cs1`, for which the AC40 was 21.1 µM.

Turning to `Cc1cc(C(=O)CN2C(=O)NC3(CCCCC3C)C2=O)c(C)n1Cc1cccs1` (configuration not stated), the AC40 was 8.17 µM.

With `COc1ccc2c(c1OC)C(=O)N(c1ccc(C)cc1)C2`, the AC40 was 12.3 µM.

On to `Oc1cccc(-c2nc3ccc4ccccc4c3c3c2CCC3)c1`, for which the AC40 is 3.02 µM.

For the molecule `CCCCSc1nsc(NC(C)=O)n1`, the AC40 was 1.28 µM.

In the case of `c1ccc(C2=NN(c3ccccc3)CC2)cc1`, the AC40 was 1.69 µM.

Regarding `Cc1ccc(NC(=O)c2ccc3ccccc3n2)cc1S(=O)(=O)N(C)C`, the AC40 was 2.37 µM.

In the case of `CCc1ccc(N2Cc3ccccc3C2)cc1`, the AC40 was 2.25 µM.

For the molecule `Nc1ccc(-c2nc3ncccc3o2)c(O)c1`, the AC40 is 5.79 µM.

Take `O=C(Cc1cccs1)NCc1ccc(Cl)cc1Cl`: the AC40 is 5.59 µM.

In the case of `CCCc1cc(C(=O)Nc2cc(Cl)ccc2O)no1`, the AC40 is 2.99 µM.

Regarding `Cc1ccc(-c2csc(NC(=O)c3ccc(Br)cc3)c2C(=O)O)cc1`, the AC40 was 6.1 µM.

Take `Fc1ccccc1CSc1nnc(-c2ccccc2)o1`: the AC40 is 0.935 µM.

As for `c1ccc(-c2cnnc(N3CCCCC3)n2)cc1`, the AC40 was 0.992 µM.

For `Nc1nc(CSc2ccccn2)nc(Nc2ccccc2)n1`, the AC40 is 1.31 µM.

As to `O=C(Nc1ccc(F)cc1Cl)c1ccc2c(=O)n3c(nc2c1)CCC3`, the AC40 is 3.5 µM.

For `CS(=O)(=O)N1CCc2cc(C(=O)Nc3ccccc3Br)ccc21`, the AC40 was 4.96 µM.

For the molecule `CN(/N=C/c1ccc2c(c1)OCO2)c1ccccc1`, the AC40 is 1.34 µM.

As to `COc1ccc(C2Nc3ccccc3C(=O)N2c2ccc(C)cc2)cc1Cn1nnc2ccccc21` (configuration not stated), the AC40 was 17.2 µM.

Regarding `CCCN1C(=O)C(=O)N(CC(=O)c2cc(C)n(C3CC3)c2C)C1=O`, the AC40 was 24.8 µM.

`COc1cccc(N(C(=O)c2nc3nccc(C)n3n2)c2nc3ccccc3s2)c1`: the AC40 was 0.495 µM.

`COc1ccc(-c2c(C)nc3c(-c4ccsc4)cnn3c2N)cc1`: the AC40 was 0.302 µM.

With `CC(C)(C)c1ccc(C(=O)Nc2ccc(F)cc2)s1`, the AC40 is 0.374 µM.

Regarding `Fc1ccc2nc(N3CCCC3)sc2c1`, the AC40 is 1.37 µM.

Turning to `COc1cccc(C(=O)Nc2nnc(-c3ccccc3)s2)c1`, the AC40 was 3.57 µM.

Regarding `COc1cccc(Nc2ccc(N3CCCCC3)cc2)c1OC`, the AC40 is 1.48 µM.

For `O=C(NC1=NCCS1)c1ccc(Cl)s1`, the AC40 was 2.64 µM.

Consider `COc1ccc(-c2ccc(C(=O)C3CC3)cc2)cc1`, for which the AC40 was 0.775 µM.

Take `Cc1nc2ccccc2nc(=O)c1NNc1ccccc1`: the AC40 was 3.99 µM.

As for `CC1(C)CN=c2s/c(=C\c3ccc(Cl)cc3)c(=O)n2C1`, the AC40 was 1.21 µM.

Turning to `COc1ccc(-c2ccc3oc(-c4ccsc4)cc(=O)c3c2)cn1`, the AC40 is 1.79 µM.

Regarding `FC(F)(F)c1ccnc(Oc2ccc(C3=NCCS3)cc2)c1`, the AC40 was 0.654 µM.

For the molecule `Nc1nc2ccccc2cc1-c1cccs1`, the AC40 is 6.26 µM.

For `COc1cccc2[nH]c(=O)c(-c3ccccc3)cc12`, the AC40 is 1.72 µM.

With `CCC(=O)N1CCc2nc(-c3ccccc3)sc2C1`, the AC40 was 6.73 µM.

`COc1cccc(/C(C)=N/N=C(\C)c2cccc(OC)c2)c1`: the AC40 is 3.27 µM.

For `O=C(Nc1ccc(OC(F)F)c(Cl)c1)c1ccccn1`, the AC40 was 0.461 µM.

Regarding `O=C(Nc1ccccn1)c1ccccc1`, the AC40 was 14.8 µM.

Consider `CC(=O)Nc1nnc(COc2ccc(Cl)cc2)s1`, for which the AC40 was 3.16 µM.

With `COC(=O)c1ccc(N=NN2CCCCC2)cc1`, the AC40 was 1.34 µM.

For `Nc1ccc(Oc2cc(N)cc(Oc3ccccc3)c2)cc1`, the AC40 was 4.99 µM.

In the case of `Cc1[nH]n(-c2cccc(Cl)c2)c(=O)c1C=NCC(C)C`, the AC40 was 5.25 µM.

Consider `COc1ccc(-n2nc(C(=O)NCC(=O)N3CCN(c4ccccc4)CC3)c3ccccc3c2=O)c(OC)c1`, for which the AC40 was 4.77 µM.

As to `ClCCn1cnc2c(SCc3ccccc3)ncnc21`, the AC40 is 3.64 µM.

As to `Cc1nn(C(=O)c2cccs2)c(N)c1-c1ccccc1`, the AC40 was 1.38 µM.

For `Clc1ccccc1/C=C/c1nc(-c2cccnc2)no1`, the AC40 is 1.2 µM.

`O=C1OC(c2ccccc2)=C/C1=C/N1CCCCC1`: the AC40 is 2.12 µM.

Regarding `CC(C)(C)c1csc(N/N=C/c2ccc(O)cc2)n1`, the AC40 is 17.8 µM.

Regarding `Cc1ccc(C)c(NC(=O)c2cc(-c3cc(C)ccc3O)n[nH]2)c1`, the AC40 was 3.03 µM.

With `Cc1ccccc1-c1nc2cc(Cl)ccc2o1`, the AC40 is 8.56 µM.

In the case of `CCCCN(C(=O)Cc1cccs1)c1nnc(-c2cccnc2)s1`, the AC40 is 5.05 µM.

`N#C/C(=N\Nc1ccccc1F)C(=N)N1CCCCC1`: the AC40 is 2.13 µM.

Consider `c1ccc(-c2ccc3sccc3n2)cc1`, for which the AC40 was 1.52 µM.

For the molecule `Cc1ccc(-n2nc3ccc(NC(=O)C(C)C)cc3n2)cc1`, the AC40 is 0.555 µM.

For the molecule `COc1ccc2cc(C(N)=O)c(=Nc3ccccc3)oc2c1`, the AC40 was 4.54 µM.

As for `NC(=O)c1cnn(-c2cc(Oc3ccccc3)ncn2)c1N`, the AC40 was 2.88 µM.

For the molecule `COc1c(C)cccc1C(=O)Nc1ccc(N2CCN(S(C)(=O)=O)CC2)cc1`, the AC40 was 4.98 µM.

In the case of `COc1ccccc1N1CCN(/N=C/c2cccc(Cl)c2)CC1`, the AC40 was 1.45 µM.

For `CCC(=O)NCCc1nc2cc(NC(=O)c3ccc(Cl)cc3)ccc2n1C`, the AC40 was 0.755 µM.

For the molecule `COc1cc(/C=N/O)ccc1OCc1ccccc1Cl`, the AC40 is 0.744 µM.

Regarding `COc1ccc(-c2nnn(Cc3ccccc3F)n2)cc1`, the AC40 was 2.14 µM.

Take `COc1cc(/C=C2\SC(=S)N(Nc3ccccc3)C2=O)ccc1O`: the AC40 was 3.01 µM.

Regarding `Clc1ccc(-c2cnnc(-c3ccccn3)n2)cc1`, the AC40 is 1.71 µM.

As for `CC1CCN(C(=O)Nc2ccc3nsnc3c2)CC1`, the AC40 was 13.7 µM.

On to `COc1ccc(C(=O)Nc2cc3c4c(c2)CC(=O)N4CCC3)c(OC)c1`, for which the AC40 was 6.24 µM.

As for `COc1ccc2cc(-c3nc4ccccc4n3C)c(=O)oc2c1`, the AC40 was 1.92 µM.

For `C/C(=N\Nc1ccc(C(=O)O)cc1)c1ccc2c(c1)Nc1ccccc1S2`, the AC40 was 12.8 µM.

Consider `Cc1csc2nc(CSc3nc4ccccc4o3)c(Br)n12`, for which the AC40 was 1.35 µM.

As for `O=C(O)c1ccc(/C=C/c2ccc3cccc(O)c3n2)cc1`, the AC40 is 0.876 µM.

Regarding `Cc1ccc(N2NC(C)(c3cccs3)NC2=S)cc1` (configuration not stated), the AC40 is 1.42 µM.

Take `CC(C)CNC(=O)C1CCN(Cc2ccc(OCc3ccccc3)cc2)CC1`: the AC40 was 20.6 µM.

Consider `CCCCCc1ccc(-c2ccc(OC)cc2)nc1`, for which the AC40 was 1.38 µM.

Consider `c1csc(CSc2nc3ccccc3s2)c1`, for which the AC40 is 1.09 µM.

On to `CCNc1nc(N)nc(Oc2ccc(C(=O)OC)cc2)n1`, for which the AC40 was 3.64 µM.

On to `Cc1nc(C(C)NC(=O)CCc2nnc(CCCc3ccccc3)o2)c(C)s1` (configuration not stated), for which the AC40 is 3.83 µM.

`COc1ccc(NC(=O)Nc2ccc(Br)cn2)cc1`: the AC40 is 3.15 µM.

For `Nc1c(-c2ccc(Cl)cc2)cnn1-c1ccccc1`, the AC40 was 1.84 µM.

In the case of `C=CCn1cccc(C(=O)Nc2ccc(Cl)cc2)c1=O`, the AC40 was > 11 µM (inactive).

`Cc1ccc(NC(=O)c2ccccc2Cl)c(Cl)c1`: the AC40 is 4.2 µM.

`O=C(Oc1ccc2ccccc2c1Cl)N1CCCCCC1`: the AC40 is 0.557 µM.

Turning to `N/C(=N\OC(=O)C1CCCCC1)c1cccc(Br)c1`, the AC40 was 13.5 µM.

In the case of `CCc1cccc(NC(=O)c2sc3nc4n(c(=O)c3c2C)CCC4)c1`, the AC40 was 4.55 µM.

On to `O=C(O)c1cc(-c2ccc(-c3c(-c4ccc5c(c4)OCO5)noc3-c3ccsc3)cc2)nc2ccccc12`, for which the AC40 is 20.3 µM.

As for `Cc1ccccc1S(=O)(=O)/N=C(/Nc1nc2ccccc2s1)c1ccccc1`, the AC40 is 31 µM.

As for `COc1ccc(/C=N/Nc2snc(SC)c2C#N)cc1OC`, the AC40 is 4.29 µM.

As to `COc1ccc(Br)c(C(=O)Nc2nc3ccccc3[nH]2)c1`, the AC40 is 4.94 µM.

In the case of `Oc1ccc(-c2nccc(-c3ccccn3)n2)cc1`, the AC40 is 4.35 µM.

Regarding `COc1ccc(NC(=O)C2Cc3ccccc3O/C2=N\O)cc1` (configuration not stated), the AC40 is 17 µM.

In the case of `Cc1cccc(Nc2nc3c(s2)CCCC3)c1`, the AC40 was 0.993 µM.

Take `Cc1ccnc(NC(=O)c2ccc(S(=O)(=O)N3CCC(C)CC3)cc2)c1`: the AC40 is 7.76 µM.

As for `CCS(=O)(=O)c1ccc2oc(Nc3ccccc3C)nc2c1`, the AC40 was 3.65 µM.

Turning to `COc1ccc2ccccc2c1/C=N/Nc1cccc(C(=O)O)c1`, the AC40 was 13.1 µM.

Regarding `Cn1c2ccccc2c(=O)c2cc(C#Cc3ccccn3)ccc21`, the AC40 was > 35 µM (inactive).

Take `Cc1cccc(-c2nc(C#N)c(NC3CCCCC3)o2)c1`: the AC40 is 1.29 µM.

In the case of `CC(=O)c1sc(N/N=C/c2cccc(O)c2)nc1C`, the AC40 is 2.67 µM.

Turning to `CC1CCc2sc(C(=O)Nc3ccc(C(N)=O)cc3)cc2C1` (configuration not stated), the AC40 was 15.4 µM.

As to `Nc1ccc2oc(=O)c3ccccc3c2c1`, the AC40 is 3.19 µM.

`CN(c1ccccc1)c1nc2ccsc2c(=O)s1`: the AC40 was 5.15 µM.

On to `c1ccc2c(-c3csc(-c4ccncc4)n3)c[nH]c2c1`, for which the AC40 was 2.93 µM.

Regarding `Nc1c(C(=O)C2CC2)sc2nc3c(cc12)CCC3`, the AC40 is 1.92 µM.

Take `CCc1ccc(O)c(-c2cc(C(=O)Nc3cccnc3)[nH]n2)c1`: the AC40 is 2.44 µM.

Take `Cc1ccc(Sc2cnc3ccccc3n2)cc1`: the AC40 is 1.43 µM.

As for `COc1ccc(C2=NN(c3ccccc3)C(c3ccc(OC)c(OC)c3)C2)cc1` (configuration not stated), the AC40 was 25.6 µM.

With `CCn1cnc2cc(NCc3ccccc3Cl)ccc21`, the AC40 was 14.6 µM.

Consider `Cn1cc(Br)c(C(=O)N/N=C/c2cc3c(cc2Cl)OCO3)n1`, for which the AC40 was 9.65 µM.

Take `CCC(=O)c1ccc(OCc2ccccc2)c(OC)c1`: the AC40 was 2.57 µM.
